Experimental data from US12492163B2, “9H-fluorene derivatives or their pharmaceutically acceptable salts” (priority 2020, dated 2025).

Tests used:
[1] = target: human recombinant beta-secretase (hBACE1) (Homo sapiens (Human), UniProt P56817); assay: FRET assay, inhibition of human recombinant beta-secretase; type: biochemical; details: 50 μM inhibitor concentration; read-out: hBACE-1 % inh
Method in brief: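 hBACE1 (added as 1 U/ml solution) cleaves a rhodamine/quencher peptide based on the Swedish APP mutation in 50 mM sodium acetate pH 4.5, 60 min at 25 °C, stopped with 2.5 M sodium acetate; fluorescence at 576 nm. % inhibition from 0–60 min signal change versus enzyme-only blanks; screened at 50 μM in triplicate; IC50 by non-linear regression.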

[2] = target: mGAT3 (Mus musculus (Mouse), UniProt P31649); assay: [3H]GABA uptake inhibition, mGAT3 in HEK293 cells; type: cell-based; details: GABA reuptake
mGAT3, sequence (P31649 whole entry): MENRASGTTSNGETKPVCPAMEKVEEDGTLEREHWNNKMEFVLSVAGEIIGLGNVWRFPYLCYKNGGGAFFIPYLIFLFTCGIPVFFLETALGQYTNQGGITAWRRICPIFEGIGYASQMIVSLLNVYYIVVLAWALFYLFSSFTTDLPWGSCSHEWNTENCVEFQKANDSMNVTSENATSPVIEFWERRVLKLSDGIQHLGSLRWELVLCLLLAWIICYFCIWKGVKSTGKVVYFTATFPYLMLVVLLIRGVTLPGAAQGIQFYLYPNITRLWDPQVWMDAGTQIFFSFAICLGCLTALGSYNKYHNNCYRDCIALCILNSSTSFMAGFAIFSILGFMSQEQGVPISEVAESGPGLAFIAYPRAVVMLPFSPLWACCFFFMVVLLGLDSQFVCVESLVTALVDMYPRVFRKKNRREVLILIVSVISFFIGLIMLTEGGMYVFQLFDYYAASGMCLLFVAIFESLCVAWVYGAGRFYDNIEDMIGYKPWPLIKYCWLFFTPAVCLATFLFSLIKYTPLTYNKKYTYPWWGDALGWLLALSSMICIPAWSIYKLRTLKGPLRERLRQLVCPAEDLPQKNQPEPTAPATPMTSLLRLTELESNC
Experimental: Exemplary compounds according to the invention were screened at the Ludwig-Maximilian University of Munich to determine the inhibitory ability towards four mouse GAT transporters (mGAT1-mGAT4). […] The biological material was stably transfected human embryonic kidney HEK293 cells, expressing genes to the appropriate transporters. The generated radioactivity was measured with a liquid scintillation counter. […] These determinations were made according to the procedure described in detail in A. Kragler, G. Höfner, K. T. Wanner, Novel parent structures for inhibitors of the murine GABA transporters mGAT3 and mGAT4, Eur. J. Pharmacol. 519 (2005) 43-47.

[3] = test system: ICR-CD1 mice; assay: Acute toxicity study in mice; type: in vivo, Mus musculus; set-up: key to Tremor / Convulsions / Hyper/Hypoventilation / Drooping eyelids / General exhaustion: mild (+); moderate (++); severe (+++)
Experimental: The research was carried out at the Department of Toxicology and Military Pharmacy, Faculty of Military Health Sciences in Hradec Kralove, Defense University in Brno in the Czech Republic, at the Biomedical Research Center and at the Department of Clinical Biochemistry of the University Hospital Hradec Kralove in the Czech Republic. All procedures were carried out under the supervision of the Ethics Committee of the Faculty of Military Health Sciences (No. 20/19; MO 215611/2019-684800). Male and female ICR-CD1 strain of domestic mice (Mus musculus) (body weight approx. 20-25 g) were used in the research. The animals were kept in standard, appropriately sized cages, divided into groups of a maximum of 8 animals. The animals in the test groups were administered the test compound intraperitoneally (doses in the acute toxicity study: 10, 20, 40 and 60 mg/kg, dose in the study of pharmacokinetic parameters 10 mg/kg). Control groups received 1% Tween 80.
The study assesses the toxicity profile of the compound by observation of emerging adverse effects, biochemical parameters analysis and histopathological analysis, and determines the maximum tolerated dose (MTD). Mice were randomly assigned to experimental groups consisting of two males and two females. […] Toxic symptoms were classified as in the previous published study [J. Misik]. Weight loss or reduction in food consumption was assessed according to the FELAS classification [K. L. Chapman] for the first two hours, and then periodically for the next 46 hours. All 48-hour survivors were euthanized. Blood was collected for biochemical analysis and selected organs (kidneys and liver) were collected for histopathological examination. Venous blood was collected in heparinized tubes. Plasma was then separated (3000×g, 5 min, 4° C.) using a centrifuge. The concentration of urea and creatinine as well as the activity of alanine aminotransferase (ALT), aspartate aminotransferase (AST), alkaline phosphatase (ALP), amylase and lactate dehydrogenase (LDH) were determined in an accredited biochemical laboratory. The harvested organs: liver and kidneys were used for standard histopathological examination. Organs were fixed with 10% neutral buffered formalin, processed for histology, and stained with hematoxylin and eosin as in a previous published study [J. Pejchal]. Histopathological changes were assessed microscopically.

[4] = 10 mg/kg (MTD) i.p., mouse Female1
[5] = 10 mg/kg (MTD) i.p., mouse Female2
[6] = 10 mg/kg (MTD) i.p., mouse Male1
[7] = 10 mg/kg (MTD) i.p., mouse Male2
[8] = plasma, 10 mg/kg (MTD) i.p., 48 h

human recombinant beta-secretase (hBACE1), sequence (P56817 46-501): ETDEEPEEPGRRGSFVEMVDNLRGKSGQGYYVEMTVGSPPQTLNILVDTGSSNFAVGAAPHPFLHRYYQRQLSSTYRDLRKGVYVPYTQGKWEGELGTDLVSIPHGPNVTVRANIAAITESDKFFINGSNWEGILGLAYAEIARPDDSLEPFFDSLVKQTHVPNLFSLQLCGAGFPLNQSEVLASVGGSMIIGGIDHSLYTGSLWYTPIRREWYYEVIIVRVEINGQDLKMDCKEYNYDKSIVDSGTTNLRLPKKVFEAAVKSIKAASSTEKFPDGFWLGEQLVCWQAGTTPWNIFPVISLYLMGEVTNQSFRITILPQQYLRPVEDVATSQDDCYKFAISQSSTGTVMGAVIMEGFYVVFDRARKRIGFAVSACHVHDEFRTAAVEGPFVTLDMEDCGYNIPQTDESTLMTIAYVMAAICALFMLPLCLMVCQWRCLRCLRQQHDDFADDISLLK

## O[C@H](CNCC1CC1)[C@H](Cc1ccccc1)NC1c2ccccc2-c2ccccc21 [JT-3, (2R,3S)-3-((9H-fluoren-9-yl)amino)-1-((cyclopropylmethyl)amino)-4-phenylbutan-2-ol]
[1]
  inhibition at 50 µM: 61.3%
[2]
  pIC50 (+/−SEM) mGAT3: 5.13 +/− 0.04
[3]; 10 mg/kg (MTD) i.p.
  changes in biochemical parameters (urea, creatinine, liver enzymes, ALP, amylase, LDH) compared to control: no statistically significant changes
  histopathological changes (liver, kidneys): only sporadic infiltration of neutrophils into the liver and adipose tissue was observed in two animals, without any signs of liver or kidney damage
[3]; [4]
  Body weight change at 24 h (%): −3.9%
  Body weight change at 48 h (%): −0.4%
  Drooping eyelids: +
  General exhaustion: +
  Hyper/Hypoventilation: +
  Tremor: +
[3]; [5]
  Body weight change at 24 h (%): −5.8%
  Body weight change at 48 h (%): −5.2%
  Convulsions: +
  Drooping eyelids: +
  General exhaustion: +
  Hyper/Hypoventilation: +
  Tremor: ++
[3]; [6]
  Body weight change at 24 h (%): −1.3%
  Body weight change at 48 h (%): −2.4%
  General exhaustion: +
  Hyper/Hypoventilation: +
  Tremor: +
[3]; [7]
  Body weight change at 24 h (%): −1.2%
  Body weight change at 48 h (%): −0.7%
  General exhaustion: +
  Hyper/Hypoventilation: +
  Tremor: +
[3]; mice, i.p., doses tested 10, 20, 40 and 60 mg/kg
  maximum tolerated dose (MTD): 10 mg/kg
[3]; [8]
  ALP: 68.4 ± 27.2 U/L
  ALT: 29.0 ± 6.5 U/L
  AST: 56.8 ± 6.6 U/L
  Amylase: 2955 ± 501 U/L
  LDH: 275 ± 94 U/L
  Urea: 33.8 ± 8.2 mg/dL
